The subject of data set [1] is P-gp. In words: Apparent permeability in MDCK cells harboring Pgp. The format is ADME, cell-based, Canis lupus familiaris. The settings on record: dog, MDCK-MDR1.
Data set [2] concerns Plasma. In words: Unbound drug uptake in plasma of Sprague-Dawley rat at 100 mg/kg, po. The format is ADME, organism-based. The settings on record: in vivo.
Data set [3] deals with Plasma. The experiment in a line: Drug uptake in plasma of Sprague-Dawley rat at 100 mg/kg, po. The format is ADME, organism-based. The conditions noted are these: in vivo.
Data set [4] can be described thus: Aqueous solubility of compound in PBS buffer. The format is physicochemical.
The test system of data set [5] is Plasma. The experiment in a line: Unbound drug uptake in plasma of formalin-induced nociception Sprague-Dawley rat model at 100 mg/kg, po. The format is ADME, organism-based. The conditions noted are these: in vivo.
The test system of data set [6] is Plasma. The experiment in a line: Drug uptake in plasma of Sprague-Dawley rat at 300 mg/kg, po. The format is ADME, organism-based. The settings on record: in vivo.
A short description of data set [7]: Oral bioavailability in rat at 100 mg/kg administered via gavage by LC-MS/MS analysis. The format is ADME, organism-based. The settings on record: in vivo.
Data set [8] deals with Plasma. The experiment in a line: Unbound drug uptake in plasma of Sprague-Dawley rat at 30 mg/kg, po. The settings on record: in vivo. The format is ADME, organism-based.
For data set [9], the system named is Plasma. The experiment in a line: Drug uptake in Sprague-Dawley rat plasma at 30 mg/kg, po. The conditions noted are these: in vivo. The format is ADME, organism-based.
The test system of data set [10] is Plasma. The experiment in a line: Unbound drug uptake in plasma of Sprague-Dawley rat at 300 mg/kg, po. The format is ADME, organism-based. The settings on record: in vivo.
The nature of data set [11]: Ratio of drug uptake in brain to plasma of formalin-induced nociception Sprague-Dawley rat model at 100 mg/kg, po. The format is ADME, organism-based. The settings on record: read-out: BPR.
Data set [12] relates to Plasma. In words: Drug uptake in plasma of formalin-induced nociception Sprague-Dawley rat model at 30 mg/kg, po. The format is ADME, organism-based. The conditions noted are these: in vivo.
The subject of data set [13] is Plasma. The experiment in a line: Drug uptake in plasma of formalin-induced nociception Sprague-Dawley rat model at 100 mg/kg, po. The format is ADME, organism-based. The settings on record: in vivo.
In data set [14] the test system is Plasma. The experiment in a line: Unbound drug uptake in plasma of formalin-induced nociception Sprague-Dawley rat model at 30 mg/kg, po. The format is ADME, organism-based. The conditions noted are these: in vivo.
Data set [15] can be described thus: Volume of distribution at steady state in rat at 0.5 mg/kg, iv by LC-MS/MS analysis. The format is ADME, organism-based. The settings on record: in vivo, read-out: Vdss.
Data set [16] in a line: Oral bioavailability in rat at 10 mg/kg administered via gavage by LC-MS/MS analysis. The format is ADME, organism-based. The settings on record: in vivo.
Data set [17] is described as follows: Oral bioavailability in rat at 40 mg/kg administered via gavage by LC-MS/MS analysis. The format is ADME, organism-based. The settings on record: in vivo.
The nature of data set [18]: Oral bioavailability in rat at 30 mg/kg administered via gavage by LC-MS/MS analysis. The settings on record: in vivo. The format is ADME, organism-based.

≈ marks a conversion by molar mass, not a printed value.

Experimental findings from ChEMBL document CHEMBL4052739, “Discovery of a biarylamide series of potent, state-dependent NaV1.7 inhibitors” (Bioorg Med Chem Lett, 2017) are described below.

Consider `O=C(COc1cccc2cccnc12)Nc1ccccc1N1CCOCC1`, for which the Papp – broadly, a coefficient for how fast a substance crosses the barrier – in [1] amounted to 37 ×10⁻⁶ cm/s.

Turning to `Nc1cccnc1-c1cccc(C(=O)Nc2cccc(C(F)(F)F)c2-c2cccnc2)c1`, the “Cp(f)” value in data set [2] was 322 nM; in data set [5], 281 nM; in [8] it was 98 nM; in data set [10], 714 nM; in data set [14] it was 61 nM. For the same molecule, the concentration came out at 1800 nM in data set [3]; 3990 nM in data set [6]; 549 nM in data set [9]; 342 nM in data set [12]; 1570 nM in [13]. In addition, the solubility – broadly, how much of the substance goes into solution per volume – in [4] amounted to 470 µM (≈ 204 µg/mL). In addition, the bioavailability – broadly, the share of a dose that reaches the circulation, judged against a reference dose that is usually intravenous – in [7] is 73%. In addition, the Kp in data set [11] was 0.36. Also, the Vd in [15] was found to be 1.29 L/kg.

Molecule `O=C(Nc1cccc(C(F)(F)F)c1-c1cccnc1)c1cccc(-c2ncccc2Cl)c1` had a solubility in data set [4] of 10 µM (≈ 4.54 µg/mL). The molecule also displayed a bioavailability in data set [16] of 58%. In addition, the Vd in [15] was determined as 1.27 L/kg.

In the case of `O=C(Nc1cccc(C(F)(F)F)c1-c1cccnc1)c1cccc(-c2ncccc2C(F)(F)F)c1`, in data set [4], the solubility came out at 22 µM (≈ 10.7 µg/mL). For the same molecule, in [17], the bioavailability amounted to 26%. In data set [15], the Vd was 0.57 L/kg.

Regarding `O=C(Nc1cccc(C(F)(F)F)c1-c1cccnc1)c1cccc(-c2ncccc2OC(F)F)c1`, the solubility in data set [4] amounted to 56 µM (≈ 27.2 µg/mL). For the same molecule, the Papp in [1] is 31 ×10⁻⁶ cm/s. Further, the Vd in [15] was 3 L/kg. The molecule further had a bioavailability in data set [18] of 92%.

In turn, `O=C(Nc1cccc(C(F)(F)F)c1-c1cccnc1)c1cccc(-c2ccccn2)c1` showed a solubility in data set [4] of 12 µM (≈ 5.03 µg/mL). The bioavailability in data set [16] amounted to 54%. For the same molecule, the Vd in data set [15] is 1.4 L/kg.
